Data reported in patent US10117430B2, “Malononitrile compounds for controlling animal pests” (BASF SE, priority 2012, dated 2018).

Experiments:
Type in all cases: in vivo
[1] = test system: Green Peach Aphid (Myzus persicae); assay: B.13 Green peach aphid test on sprayed bell pepper plants; conditions: 120 h, in comparison with untreated controls, after 5 days
Excerpt: B.13 Green Peach Aphid (Myzus persicae)
The active compounds were formulated in cyclohexanone as a 10,000 ppm solution supplied in tubes. The tubes were inserted into an automated electrostatic sprayer equipped with an atomizing nozzle and they served as stock solutions for which lower dilutions were made in 50% acetone:50% water (v/v). A nonionic surfactant (Kinetic®) was included in the solution at a volume of 0.01% (v/v). Bell pepper plants at the first true-leaf stage were infested prior to treatment by placing heavily infested leaves from the main colony on top of the treatment plants. Aphids were allowed to transfer overnight to accomplish an infestation of 30-50 aphids per plant and the host leaves were removed. The infested plants were then sprayed by an automated electrostatic plant sprayer equipped with an atomizing spray nozzle. The plants were dried in the sprayer fume hood, removed, and then maintained in a growth room under fluorescent lighting in a 24-hr photoperiod at about 25° C. and about 20-40% relative humidity. Aphid mortality on the treated plants, relative to mortality on untreated control plants, was determined after 5 days.

[2] = test system: Mediterranean Fruitfly (Ceratitis capitata); assay: B.2 Mediterranean fruitfly microtiter diet test, egg and larval mortality; conditions: 120 h, in comparison with untreated controls, egg and larval mortality after 5 days
Method in brief: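 Microtiter plates held insect diet with 50-80 C. capitata eggs; compounds in 75% water/25% DMSO were sprayed onto the diet at various concentrations, two replicates. Plates kept about 5 days at 28±1 °C and 80±5% RH, then egg and larval mortality scored visually.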

[3] = test system: Orchid Thrips (Dichromothrips corbetti); assay: B.4 Orchid thrips floral-immersion test; conditions: 96 h, in comparison with untreated controls, after 4 days
Method in brief: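 Orchid flowers dipped in 300 ppm compound (acetone:water 1:1, 0.01% surfactant), dried, then caged with 10-15 adult D. corbetti from a lab colony. Held under continuous light at about 28° C. Live thrips counted after 4 days; mortality extrapolated from pre-treatment numbers.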

[4] = test system: Boll Weevil (Anthonomus grandis); assay: B.9 Boll weevil microtiter diet test, egg and larval mortality; conditions: 120 h, in comparison with untreated controls, egg and larval mortality after 5 days
Method in brief: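 Insect diet carrying 20-30 A. grandis eggs per well was sprayed with compounds formulated in 75% water/25% DMSO, at various concentrations with two replicates. Plates were held at about 23±1° C and 50±5% RH for 5 days. Egg and larval mortality were then scored visually.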

[5] = test system: Vetch Aphid (Megoura viciae); assay: B.7 Vetch aphid test on broad bean leaf disks; conditions: foliar, 120 h, in comparison with untreated controls, 5 days
Method in brief: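 Broad bean leaf disks sprayed with compounds in 25% DMSO/75% water at several concentrations, two replicates, then air-dried. Infested with 5-8 adult Megoura viciae and held 5 days at about 23±1 °C and 50±5% RH. Mortality and fecundity scored visually.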

[6] = test system: Yellow Fever Mosquito (Aedes aegypti); assay: whole plant or invertebrate; conditions: 48 h, in comparison with untreated controls, larval mortality after 2 days
Method in brief: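 Freshly hatched larvae (5-15 per well) in 200 μl tap water; compounds formulated in 75% water/25% DMSO and sprayed at 2.5 μl per well at several concentrations, two replicates. Incubated 2 days at 28±1° C., 80±5% RH; larval mortality scored visually.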

[7] = test system: Green Peach Aphid (Myzus persicae); assay: B.3 Green peach aphid systemic test, artificial diet under membrane; conditions: 72 h, concentration of the test solution 2500 mg/L, 3 days
Method in brief: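 Systemic uptake from artificial liquid diet beneath a membrane, compound formulated in 75% water/25% DMSO and added to diet at several concentrations, two replicates. 5-8 adult aphids fed on treated diet for 3 days at about 23±1° C. and 50±5% RH. Mortality and fecundity scored visually.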

N#CC(C#N)(Cc1ccc(C(F)(F)F)nc1)c1cc(F)cc(F)c1 [II-34]
≥ 75%: mortality at 300 ppm [1] | mortality at 2500 ppm [2] | mortality at 500 ppm [3] | mortality at 2500 ppm [4] | mortality at 2500 ppm [5] | mortality at 2500 ppm [6] | mortality at 2500 µg/mL [7]
